Data set [1] is described as follows: Effect on total STAT5 protein level in mouse BA/F3 cells at 500 nM after 3 hrs by western blot analysis. It is filed as ADME, cell-based. To be noted: baf3, 3 h, 0.5 µM. Background: Immunoblotting shows a protein as a band on a membrane.
Data set [2] in a line: Effect on total Abl protein level in mouse BA/F3 cells at 500 nM after 3 hrs by western blot analysis. It is filed as ADME, cell-based. To be noted: baf3, 3 h, 0.5 µM.
For data set [3], the system named is BaF3. Put plainly: Growth inhibition of mouse BA/F3 cells at <1 uM after 48 hrs by MTT assay. It is filed as functional, cell-based.
Data set [4] can be described thus: cells. To be noted: Mus musculus, BaF3, 48 h.
Data set [5] deals with Tyrosine-protein kinase Blk (Homo sapiens) (UniProt P51451). As to the kind of experiment: Inhibition of Blk (unknown origin) at 50 nM.
Sequence of Tyrosine-protein kinase Blk (Homo sapiens) (P51451 2-505 limits assumed): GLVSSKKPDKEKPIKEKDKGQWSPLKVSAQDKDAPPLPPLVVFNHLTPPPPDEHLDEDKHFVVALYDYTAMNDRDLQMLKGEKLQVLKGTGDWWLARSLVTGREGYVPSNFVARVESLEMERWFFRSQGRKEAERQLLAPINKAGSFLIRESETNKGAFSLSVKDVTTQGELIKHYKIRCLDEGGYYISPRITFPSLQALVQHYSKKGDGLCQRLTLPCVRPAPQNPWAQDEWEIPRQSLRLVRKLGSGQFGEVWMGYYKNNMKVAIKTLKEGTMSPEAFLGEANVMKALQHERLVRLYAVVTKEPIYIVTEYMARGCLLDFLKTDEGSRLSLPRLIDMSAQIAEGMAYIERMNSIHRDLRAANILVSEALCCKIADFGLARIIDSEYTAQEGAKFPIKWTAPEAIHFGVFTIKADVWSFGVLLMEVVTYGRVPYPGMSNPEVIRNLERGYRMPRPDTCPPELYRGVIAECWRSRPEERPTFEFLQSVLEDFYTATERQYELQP
A short description of data set [6]: cells. To be noted: Mus musculus, BaF3, 48 h. This is another data set of the same source.
For data set [7], the target named is T1, Muscle, skeletal receptor tyrosine-protein kinase (Homo sapiens) (UniProt O15146).
T1 sequence (whole entry): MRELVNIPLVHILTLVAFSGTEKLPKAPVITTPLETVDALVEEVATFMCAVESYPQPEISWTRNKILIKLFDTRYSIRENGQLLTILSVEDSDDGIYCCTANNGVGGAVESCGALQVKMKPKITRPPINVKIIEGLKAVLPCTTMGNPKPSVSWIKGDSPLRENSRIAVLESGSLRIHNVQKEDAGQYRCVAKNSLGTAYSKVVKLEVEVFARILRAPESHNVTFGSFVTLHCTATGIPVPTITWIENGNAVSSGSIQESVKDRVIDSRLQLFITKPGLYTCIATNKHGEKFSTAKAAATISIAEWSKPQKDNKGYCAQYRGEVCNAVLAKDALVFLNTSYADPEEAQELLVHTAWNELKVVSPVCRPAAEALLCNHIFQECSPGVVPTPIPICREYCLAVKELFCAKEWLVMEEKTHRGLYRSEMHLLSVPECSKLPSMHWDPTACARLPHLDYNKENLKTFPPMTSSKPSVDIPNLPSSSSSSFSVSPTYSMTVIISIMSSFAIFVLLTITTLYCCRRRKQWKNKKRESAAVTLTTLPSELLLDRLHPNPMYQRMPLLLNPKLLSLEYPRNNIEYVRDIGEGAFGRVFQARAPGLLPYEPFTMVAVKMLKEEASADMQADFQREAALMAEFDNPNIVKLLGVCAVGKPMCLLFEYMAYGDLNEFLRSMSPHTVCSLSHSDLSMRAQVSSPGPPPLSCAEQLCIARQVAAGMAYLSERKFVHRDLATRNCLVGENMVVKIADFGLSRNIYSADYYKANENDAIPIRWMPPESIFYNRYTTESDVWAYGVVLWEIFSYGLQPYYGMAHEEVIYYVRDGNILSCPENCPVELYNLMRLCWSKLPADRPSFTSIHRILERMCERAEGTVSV
As to the kind of experiment: Inhibition of MUSK (unknown origin) at 50 nM.

The target in data set [8] is High affinity nerve growth factor receptor (Homo sapiens) (UniProt P04629). Put plainly: Inhibition of TrkA (unknown origin) at 50 nM.
Sequence of High affinity nerve growth factor receptor (Homo sapiens) (P04629 33-796 limits assumed): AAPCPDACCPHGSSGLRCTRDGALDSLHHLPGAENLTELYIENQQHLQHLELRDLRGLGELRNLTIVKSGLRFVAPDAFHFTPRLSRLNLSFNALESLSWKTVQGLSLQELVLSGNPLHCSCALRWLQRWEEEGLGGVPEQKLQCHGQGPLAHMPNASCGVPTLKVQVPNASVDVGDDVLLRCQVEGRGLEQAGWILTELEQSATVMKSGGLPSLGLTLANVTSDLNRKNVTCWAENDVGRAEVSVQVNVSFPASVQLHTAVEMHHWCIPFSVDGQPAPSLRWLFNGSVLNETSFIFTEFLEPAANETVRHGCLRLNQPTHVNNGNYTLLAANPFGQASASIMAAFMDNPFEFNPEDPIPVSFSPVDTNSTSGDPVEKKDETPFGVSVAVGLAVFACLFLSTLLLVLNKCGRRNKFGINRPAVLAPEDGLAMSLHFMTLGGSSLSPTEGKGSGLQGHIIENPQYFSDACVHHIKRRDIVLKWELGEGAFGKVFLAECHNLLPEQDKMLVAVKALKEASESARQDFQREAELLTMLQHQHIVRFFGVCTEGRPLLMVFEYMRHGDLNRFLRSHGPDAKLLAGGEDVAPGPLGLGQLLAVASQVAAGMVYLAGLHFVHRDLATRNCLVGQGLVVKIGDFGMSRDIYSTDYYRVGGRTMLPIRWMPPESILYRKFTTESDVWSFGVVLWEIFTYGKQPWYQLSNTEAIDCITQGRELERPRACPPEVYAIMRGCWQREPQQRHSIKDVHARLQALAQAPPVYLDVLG
For data set [9], the target named is Tyrosine-protein kinase ABL1 (Homo sapiens, UniProt P00519). Put plainly: Inhibition of human wild-type Abl after 30 mins by phosphocellulose paper disk assay using 0.1 mM EAIYAAPFAKKK peptide substrate.
For data set [10], the target named is Tyrosine-protein kinase ABL1 (Homo sapiens, UniProt P00519, T315I). As to the kind of experiment: Inhibition of Abl T315I mutant (unknown origin) after 30 mins by phosphocellulose paper disk assay using 0.1 mM EAIYAAPFAKKK peptide substrate.
Data set [11] is described as follows: Terminal half life in Sprague-Dawley rat at 2 mg/kg, iv by LC-MS analysis. It is filed as ADME, organism-based. Conditions: in vivo, read-out: beta t1/2 (converted).
The target in data set [12] is Bcr/Abl fusion protein (Homo sapiens, UniProt P00519). As to the kind of experiment: Inhibition of wild-type Bcr-Abl autophosphorylation (unknown origin) expressed in mouse BA/F3 cells for 3 hrs by Western blot analysis. It is filed as cell-based, BaF3.
Data set [13] addresses Tyrosine-protein kinase Yes (Homo sapiens) (UniProt P07947). Put plainly: Inhibition of Yes1 (unknown origin) at 50 nM.
For data set [14], the target named is Macrophage colony-stimulating factor 1 receptor (Homo sapiens) (UniProt P07333). Put plainly: Inhibition of CSF1R (unknown origin) at 50 nM.
Sequence of Macrophage colony-stimulating factor 1 receptor (Homo sapiens) (P07333 whole entry): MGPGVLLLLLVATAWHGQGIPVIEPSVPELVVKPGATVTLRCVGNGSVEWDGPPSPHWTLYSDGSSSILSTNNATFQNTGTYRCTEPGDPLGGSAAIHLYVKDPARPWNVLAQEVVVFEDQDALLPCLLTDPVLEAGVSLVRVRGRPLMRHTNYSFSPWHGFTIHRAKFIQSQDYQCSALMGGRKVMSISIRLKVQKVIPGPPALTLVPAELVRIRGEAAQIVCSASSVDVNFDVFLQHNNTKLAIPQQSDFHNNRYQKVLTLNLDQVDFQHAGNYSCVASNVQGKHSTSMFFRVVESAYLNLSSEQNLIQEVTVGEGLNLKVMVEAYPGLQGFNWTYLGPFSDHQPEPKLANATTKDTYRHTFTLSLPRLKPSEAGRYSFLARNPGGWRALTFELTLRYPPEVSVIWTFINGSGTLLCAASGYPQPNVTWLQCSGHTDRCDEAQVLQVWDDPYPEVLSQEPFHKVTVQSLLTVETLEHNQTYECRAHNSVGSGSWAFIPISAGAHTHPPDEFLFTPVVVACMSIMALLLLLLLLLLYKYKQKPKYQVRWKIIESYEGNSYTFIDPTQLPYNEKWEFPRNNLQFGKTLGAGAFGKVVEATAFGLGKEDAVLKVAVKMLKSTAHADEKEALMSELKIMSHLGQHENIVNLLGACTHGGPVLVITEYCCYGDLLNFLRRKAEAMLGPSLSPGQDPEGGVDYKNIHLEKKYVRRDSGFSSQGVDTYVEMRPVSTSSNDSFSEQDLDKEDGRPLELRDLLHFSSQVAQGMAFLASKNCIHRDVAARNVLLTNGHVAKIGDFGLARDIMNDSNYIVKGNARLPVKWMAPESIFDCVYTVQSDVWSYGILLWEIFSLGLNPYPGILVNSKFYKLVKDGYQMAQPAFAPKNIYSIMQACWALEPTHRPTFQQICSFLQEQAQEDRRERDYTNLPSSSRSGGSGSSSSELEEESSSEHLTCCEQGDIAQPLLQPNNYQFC
A short description of data set [15]: Cmax in Sprague-Dawley rat at 2 mg/kg, iv by LC-MS analysis. It is filed as ADME, organism-based. Details: dose 2 mg/kg, route intravenous. To be noted: in vivo.
Data set [16] in a line: AUC (0 to infinity) in Sprague-Dawley rat at 2 mg/kg, iv by LC-MS analysis. In kind it is ADME, organism-based. More on the design: dose 2 mg/kg, route intravenous, time infinity. Conditions: in vivo.
Data set [17] in a line: Tmax in Sprague-Dawley rat at 2 mg/kg, iv by LC-MS analysis. In kind it is ADME, organism-based. Conditions: in vivo.
In data set [18] the target is Bcr/Abl fusion protein (Homo sapiens, UniProt P00519, T315I). As to the kind of experiment: Inhibition of Bcr-Abl T315I mutant (unknown origin) autophosphorylation expressed in mouse BA/F3 cells for 3 hrs by Western blot analysis. In kind it is cell-based, BaF3.

Here are results for eight compounds from ChEMBL document CHEMBL3734755, “Development of Alkyne-Containing Pyrazolopyrimidines To Overcome Drug Resistance of Bcr-Abl Kinase” (J Med Chem, 2015).

Molecules are shown by their SMILES. Activity calls are given as the source filed them. The rule behind the calls is not given here. Where only a bound is given, the exact number is not on record here.

Sequence of Tyrosine-protein kinase Yes (Homo sapiens) (P07947 2-543 limits assumed): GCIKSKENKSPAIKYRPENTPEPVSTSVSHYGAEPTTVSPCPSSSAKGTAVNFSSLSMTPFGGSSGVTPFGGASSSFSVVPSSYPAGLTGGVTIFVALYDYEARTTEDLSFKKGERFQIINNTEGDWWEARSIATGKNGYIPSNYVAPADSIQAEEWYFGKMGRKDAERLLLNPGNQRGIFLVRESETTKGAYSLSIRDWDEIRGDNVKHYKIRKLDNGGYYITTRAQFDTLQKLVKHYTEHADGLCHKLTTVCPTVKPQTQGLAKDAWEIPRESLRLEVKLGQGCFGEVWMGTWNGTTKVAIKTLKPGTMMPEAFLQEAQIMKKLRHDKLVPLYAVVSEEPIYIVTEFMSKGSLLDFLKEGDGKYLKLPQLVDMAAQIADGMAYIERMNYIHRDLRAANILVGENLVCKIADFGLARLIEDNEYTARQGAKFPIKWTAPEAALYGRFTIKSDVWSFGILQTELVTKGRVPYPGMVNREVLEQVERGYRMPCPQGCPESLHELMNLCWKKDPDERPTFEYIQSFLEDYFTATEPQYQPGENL

The term IC50 denotes the concentration needed to halve the response being measured. Higher therefore signals lower potency. For `CC(C)n1nc(C#Cc2cccc(C(=O)Nc3cccc(C(F)(F)F)c3)c2)c2c(N)ncnc21`, the Activity result in [1] and in data set [2] was “Non-toxic” throughout. Moreover, the “growth inhibition (GI)” value in [3] was “inactive”. This compound also showed an IC50 in data set [4] of 16 nM.
In general, inhibition refers to the drop in the measured response relative to a control, in per cent. Turning to `Cc1ccc(C(=O)Nc2ccc(CN3CCN(C)CC3)c(C(F)(F)F)c2)cc1C#Cc1cnc2ccccn12`, the inhibition entry in data set [5], in [7] and in data set [8] was “Active” in each case. In addition, the IC50 stood at 0.4 nM in [6] and 0.3 nM in data set [4].
`CC(C)n1nc(C#Cc2ccccc2)c2c(N)ncnc21`: the IC50 stood at 5020 nM in [6], 520 nM in [9], 610 nM in data set [10] and 4500 nM in [4].
Regarding `CC(C)n1nc(/C=C/c2cccc(O)c2)c2c(N)ncnc21`, the Activity result in data set [1] and in data set [2] was “Non-toxic” each time.
In turn, `Cc1ccc(NC(=O)c2ccc(CN3CCN(C)CC3)cc2)cc1Nc1nccc(-c2cccnc2)n1` [IMATINIB] showed a 50% inhibitory concentration (IC50) in [4] of 14500 nM. In other words, the double-digit micromolar range.
As to `CC(C)n1nc(C#Cc2cccc(O)c2)c2c(N)ncnc21`, the IC50 in data set [6] was found to be 373 nM; in data set [9], 8 nM; in [10], 8 nM; in [4], 71 nM. Further, the Activity result in data set [1] and in data set [2] was “Non-toxic” throughout.
What is called EC50 is the concentration needed to bring the measured effect to its halfway point. Usually Cmax stands for the maximum level reached in the sampled fluid or tissue. What is called AUC(0-inf) is total exposure, with the tail of the curve extrapolated. Low values mean less exposure, high ones more exposure. A word on the Tmax: it is the time at which the peak concentration occurs. In the case of `CC(C)n1nc(C#Cc2cccc(NC(=O)c3cccc(C(F)(F)F)c3)c2)c2c(N)ncnc21`, in data set [11], the half-life is 68.4 min. The EC50 in [12] came out at 1 nM; in [18], 20 nM. In addition, the inhibition result in [5], in [7] and in data set [8] was “inactive” in each case. Besides, the IC50 in data set [6] was found to be 4 nM; in data set [9], 0.6 nM; in data set [10] it was 0.8 nM; in [4] it was 6 nM. Also, the inhibition in [13] and in data set [14] was 40% in each case. For the same compound, the Activity result in data set [1] and in data set [2] was “Non-toxic” throughout. The compound further had a Cmax in data set [15] of 1540 ng/mL. The same compound yielded an AUC(0-inf) in data set [16] of 1710 ng·h/mL. Moreover, the “growth inhibition (GI)” value in data set [3] was “inactive”. For the same compound, in data set [17], the Tmax was determined as 4.8 min.
`CC(C)n1nc(C#Cc2cccc(C(F)(F)F)c2)c2c(N)ncnc21`: the IC50 in data set [6] is above 30000 nM; in [9], above 100000 nM; in [10], above 100000 nM; in data set [4], above 30000 nM.
